Holding throughout (type): biochemical
Test [1] relates to xanthine oxidase (XOD)-hypoxanthine (HX) system (superoxide). Description: Xanthine oxidase system (superoxide generating system). Conditions: pH 7.4, 37° C. The procedure:
The test compounds were evaluated under the following conditions for their effect in a reaction due to a xanthine oxidase (XOD)-hypoxanthine (HX) system in aqueous solution.
Xanthine oxidase 0.1 U/ml
Hepes buffer solution (pH 7.4)
(§1) A reaction solution was prepared by mixing hypoxanthine and luminol in the Hepes buffer solution and stored in ice until use. After warming the reaction solution at 37° C. for about 10 min, the reaction was started by addition of the xanthine oxidase solution. A measurement was started right after the addition of xanthine oxidase and subsequent stirring; chemiluminescence intensity was normally measured right after the start of the reaction. In the experimental model, luminol-dependent chemiluminescence induced by superoxide generated by enzymatic reaction of xanthine oxidase was detected, thus enabling the measurement of the reactivity with superoxide.

The test system of test [2] is Rabbit LDL. Description: Amount of TBARS (Cu^2+-induced oxidation of rabbit LDL). Conditions: 5 μM Cu^2+. The method, then:
Rabbit LDL was prepared in accordance with the method of Havel et al. [Havel, R. J. et al., J. Clin. Invest., 34, (1955)]. After adding 5 μM of Cu^2+, the mixture was warmed until a thiobarbituric acid reactive substance (TBARS) was produced. The test compounds were evaluated for their anti-oxidative action with the amount of TBARS being used as an index. [formula]

For test [3], the target named is lipid peroxidation due to the autoxidation of linoleic acid. Description: Linoleic acid-MCLA system, Test Case 4. Conditions: linoleic acid 10 mM, MCLA 2 μM, 1-butanol, 37° C.; read-out: 50% inhibition concentration. The procedure: The test compounds were evaluated for their inhibitory effect against lipid peroxidation due to the autoxidation of linoleic acid.
A reaction solution was prepared by mixing linoleic acid and MCLA (2-methyl-6-(p-methoxyphenyl)-3,7-dihydroimidazo[1,2-a]pyrazin-3-one) in 1-butanol and stored in ice until use. An amount of this reaction solution was sampled in a chemiluminescence measuring cell and, immediately thereafter, the intensity of chemiluminescence due to the autoxidation of linoleic acid was measured at 37° C. in a thermostatic bath. A normal chemiluminescence intensity measurement was conducted about 2-4 min later when the chemiluminescence substantially peaked.

Test [4] has as its system lactoperoxidase reaction system (singlet oxygen). Description: Lactoperoxidase system (singlet oxygen system). Conditions: pH 4.5, 37° C. The method, then:
The test compounds were evaluated under the following conditions for their effect against a lactoperoxidase reaction system.
Lactoperoxidase 10 μg/ml
Acetate buffer solution (pH 4.5)
as §1, with “hydrogen peroxide, sodium bromide” for “hypoxanthine”, “acetate” for “Hepes”, “lactoperoxidase” for “xanthine oxidase”, “was” for “was normally”, “singlet oxygen” for “superoxide”, “singlet oxygen.” for “superoxide.”

Take `CC(C)(C)c1cc2c(c(C(C)(C)C)c1O)CC1(CCCCC1)O2` [Compound n, 4,6-Di-tert-Butyl-5-Hydroxy-2,3-Dihydrobenzofuran-2-Spiro-1'-cyclohexane]: the “Chemiluminescence intensity (% of control)” value in test [1] (at 20 μM of compound) is on record as 100.3 % of control; in test [1] (at 200 μM of compound), 104.9 % of control. In addition, the “TBARS produced (%)” value in test [2] (at 10^-5 M of compound, 10 µM) worked out at 15.6%; in test [2] (at 10^-6 M of compound, 1 µM) it was 76.2%. The IC50 in test [3] stood at 9 µM.

As for `CCCCC1(CCCC)Cc2c(cc(C(C)(C)C)c(O)c2C(C)(C)C)O1` [Compound f, 4,6-Di-tert-Butyl-2,2-Di-n-Butyl-5-Hydroxy-2,3-Dihydrobenzofuran], the “Chemiluminescence intensity (% of control)” value in test [1] (at 20 μM of compound) is on record as 91.0 % of control; in test [1] (at 200 μM of compound), 102.4 % of control. Further, the “TBARS produced (%)” value in test [2] (at 10^-5 M of compound, 10 µM) is recorded as 12.2%; in test [2] (at 10^-6 M of compound, 1 µM), 81.6%. Also, in test [3], the IC50 stood at 8 µM.

In the case of `CC1(C)Cc2c(cc(C(C)(C)C)c(O)c2C(C)(C)C)O1` [Compound c, 5-Hydroxy-4,6-Di-tert-Butyl-2,2-Dimethyl-2,3-Dihydrobenzofuran], the “TBARS produced (%)” value in test [2] (at 10^-5 M of compound, 10 µM) is given as 9.2%; in test [2] (at 10^-6 M of compound, 1 µM), 55.3%. The IC50 in test [3] was determined as 7 µM.

For the compound `CC(C)(C)c1cc2occc2c(C(C)(C)C)c1O` [Compound r, 4,6-Di-tert-Butyl-5-Hydroxybenzofuran], the “TBARS produced (%)” value was found to be 30.1% in test [2] (at 10^-5 M of compound, 10 µM) and 74.2% in test [2] (at 10^-6 M of compound, 1 µM).

On to `Cc1cc2c(C(C)(C)C)c(O)c(C(C)(C)C)cc2o1` [Compound s, 4,6-Di-tert-Butyl-5-Hydroxy-2-Methylbenzofuran], for which the “TBARS produced (%)” value in test [2] (at 10^-5 M of compound, 10 µM) turned out to be 39.2%; in test [2] (at 10^-6 M of compound, 1 µM), 75.7%.

Turning to `CCC1(CC)Cc2c(cc(C(C)(C)C)c(O)c2C(C)(C)C)O1` [Compound d, 4,6-Di-tert-Butyl-2,2-Diethyl-5-Hydroxy-2,3-Dihydrobenzofuran], the “TBARS produced (%)” value is given as 9.4% in test [2] (at 10^-5 M of compound, 10 µM) and 76.9% in test [2] (at 10^-6 M of compound, 1 µM).

Turning to `CC1Cc2c(cc(C(C)(C)C)c(O)c2C(C)(C)C)O1` (stereo not shown) [Compound b, 4,6-Di-tert-Butyl-5-Hydroxy-2-Methyl-2,3-Dihydrobenzofuran], the “TBARS produced (%)” value in test [2] (at 10^-5 M of compound, 10 µM) is listed as 8.9%; in test [2] (at 10^-6 M of compound, 1 µM), 53.8%.

As to `CC(C)(C)c1c(O)ccc2c1CC(CO)O2` (stereo not shown) [Comparison 3, reference compound], in test [3], the IC50 is 54 µM.

Regarding `CC(C)(C)c1cc2c(c(C(C)(C)C)c1O)CC(c1ccccc1)(c1ccccc1)O2` [Compound j, 4,6-Di-tert-Butyl-2,2-Diphenyl-5-Hydroxy-2,3-Dihydrobenzofuran], the “TBARS produced (%)” value in test [2] (at 10^-5 M of compound, 10 µM) was 11.6%; in test [2] (at 10^-6 M of compound, 1 µM) it was 93.1%.

As for `CC(C)(C)c1cc2c(c(C(C)(C)C)c1O)CC(Cc1ccccc1)(Cc1ccccc1)O2` [Compound k, 4,6-Di-tert-Butyl-2,2-Dibenzyl-5-Hydroxy-2,3-Dihydrobenzofuran], the “TBARS produced (%)” value is listed as 11.1% in test [2] (at 10^-5 M of compound, 10 µM) and 93.0% in test [2] (at 10^-6 M of compound, 1 µM).

Take `CCCCCCCCC1Cc2c(cc(C(C)(C)C)c(O)c2C(C)(C)C)O1` (stereo not shown) [Compound g, 4,6-Di-tert-Butyl-5-Hydroxy-2-Octyl-2,3-Dihydrobenzofuran]: the “Chemiluminescence intensity (% of control)” value is listed as 88.6 % of control in test [1] (at 20 μM of compound), 104.8 % of control in test [1] (at 200 μM of compound), 97.0 % of control in test [4] (at 20 μM of compound) and 76.0 % of control in test [4] (at 200 μM of compound). Further, the “TBARS produced (%)” value in test [2] (at 10^-5 M of compound, 10 µM) is 8.8%; in test [2] (at 10^-6 M of compound, 1 µM) it was 82.6%.

For `CCCCCCCCC1(CCCCCCCC)Cc2c(cc(C(C)(C)C)c(O)c2C(C)(C)C)O1` [Compound y, 4,6-Di-tert-Butyl-2,2-Di-n-Octyl-5-Hydroxy-2,3-Dihydrobenzofuran], the entries for the “Chemiluminescence intensity (% of control)” value in test [1] (at 20 μM of compound) and in test [1] (at 200 μM of compound) were 94.2 % of control and 110.2 % of control, respectively. Moreover, the “TBARS produced (%)” value in test [2] (at 10^-5 M of compound, 10 µM) came out at 72.3%; in test [2] (at 10^-6 M of compound, 1 µM) it was 85.4%.

In the case of `CCCOc1cc(C(C)(C)C)c(O)c(C(C)(C)C)c1C` [Compound u, 2,6-Di-tert-Butyl-3-Methyl-4-Propyloxyphenol], the “TBARS produced (%)” value in test [2] (at 10^-5 M of compound, 10 µM) is 47.3%; in test [2] (at 10^-6 M of compound, 1 µM), 87.7%.

As for `CC(C)(C)c1cc2c(c(C(C)(C)C)c1O)CC1(CCCC1)O2` [Compound m, 4,6-Di-tert-Butyl-5-Hydroxy-2,3-Dihydrobenzofuran-2-Spiro-1'-Cyclopentane], the “Chemiluminescence intensity (% of control)” value in test [1] (at 20 μM of compound) is given as 83.1 % of control; in test [1] (at 200 μM of compound), 89.8 % of control. For the same compound, the “TBARS produced (%)” value in test [2] (at 10^-5 M of compound, 10 µM) is listed as 11.8%; in test [2] (at 10^-6 M of compound, 1 µM), 85.3%. Moreover, the IC50 in test [3] was 7 µM.

With `CCCC1(CCC)Cc2c(cc(C(C)(C)C)c(O)c2C(C)(C)C)O1` [Compound e, 4,6-Di-tert-Butyl-2,2-Di-n-Propyl-5-Hydroxy-2,3-Dihydrobenzofuran], the “TBARS produced (%)” value is reported as 13.5% in test [2] (at 10^-5 M of compound, 10 µM) and 86.3% in test [2] (at 10^-6 M of compound, 1 µM).

Take `CC(C)(C)c1cc2c(c(C(C)(C)C)c1O)CC(CCl)O2` (stereo not shown) [l, 4,6-tert-Butyl-2-Chloromethyl-5-Hydroxy-2,3-Dihydrobenzofuran]: the “TBARS produced (%)” value in test [2] (at 10^-5 M of compound, 10 µM) turned out to be 8.1%; in test [2] (at 10^-6 M of compound, 1 µM) it was 11.5%.

For `Cc1c(OCCCOc2cc(C(C)(C)C)c(O)c(C(C)(C)C)c2C)cc(C(C)(C)C)c(O)c1C(C)(C)C` [Compound w, 1,3-Bis(3,5-Di-tert-Butyl-4-Hydroxy-2-Methylphenoxy)propane], the “TBARS produced (%)” value was found to be 17.2% in test [2] (at 10^-5 M of compound, 10 µM) and 71.3% in test [2] (at 10^-6 M of compound, 1 µM).

Consider `CC(C)C1(C(C)C)Cc2c(cc(C(C)(C)C)c(O)c2C(C)(C)C)O1` [Compound i, 4,6-Di-tert-Butyl-2,2-Di-i-Propyl-5-Hydroxy-2,3-Dihydrobenzofuran], for which the “TBARS produced (%)” value amounted to 10.3% in test [2] (at 10^-5 M of compound, 10 µM) and 90.8% in test [2] (at 10^-6 M of compound, 1 µM).

Take `CC(C)(C)c1cc2c(C(C)(C)C)c(O)c(C(C)(C)C)cc2o1` [Compound t, 2,4,6-Tri-tert-Butyl-5-Hydroxybenzofuran]: the “TBARS produced (%)” value in test [2] (at 10^-5 M of compound, 10 µM) is recorded as 68.0%; in test [2] (at 10^-6 M of compound, 1 µM), 81.7%.

Take `C=CCOc1cc(C(C)(C)C)c(O)c(C(C)(C)C)c1C` [Compound v, 4-Allyloxy-2,6-Di-tert-Butyl-3-Methylphenol]: the “TBARS produced (%)” value in test [2] (at 10^-5 M of compound, 10 µM) stood at 80.3%; in test [2] (at 10^-6 M of compound, 1 µM) it was 99.3%.

For `CC(C)CCC1(CCC(C)C)Cc2c(cc(C(C)(C)C)c(O)c2C(C)(C)C)O1` [Compound z, 2,2-Diisoamyl-4,6-Di-tert-Butyl-5-Hydroxy-2,3-Dihydrobenzofuran], the “Chemiluminescence intensity (% of control)” value in test [1] (at 20 μM of compound) is on record as 99.2 % of control; in test [1] (at 200 μM of compound), 107.5 % of control. Also, the “TBARS produced (%)” value in test [2] (at 10^-5 M of compound, 10 µM) worked out at 22.9%; in test [2] (at 10^-6 M of compound, 1 µM) it was 77.5%. Further, in test [3], the IC50 is 6 µM.

Regarding `CC(C)(C)c1cc2c(c(C(C)(C)C)c1O)CC(C(C)(C)C)O2` (stereo not shown) [Compound h, 2,4,6-Tri-tert-Butyl-5-Hydroxy-2,3-Dihydrobenzofuran], the “TBARS produced (%)” value in test [2] (at 10^-5 M of compound, 10 µM) worked out at 10.6%; in test [2] (at 10^-6 M of compound, 1 µM), 74.0%. In test [3], the IC50 was 9 µM.

For `CC(C)(C)c1cc2c(c(C(C)(C)C)c1O)CC1(CCCCCCC1)O2` [Compound p, 4,6-Di-tert-Butyl-5-Hydroxy-2,3-Dihydrobenzofuran-2-Spiro-1'-Cyclooctane], the “TBARS produced (%)” value in test [2] (at 10^-5 M of compound, 10 µM) came to 22.0%; in test [2] (at 10^-6 M of compound, 1 µM) it was 91.8%.

Regarding `CC(C)(C)c1cc2c(cc1O)CC(C(C)(C)C)O2` (stereo not shown) [Comparison 4, reference compound], the IC50 in test [3] is 42 µM.

Turning to `CC(C)(C)c1cc2c(c(C(C)(C)C)c1O)CC1(CCCCCC1)O2` [Compound o, 4,6-Di-tert-Butyl-5-Hydroxy-2,3-Dihydrobenzofuran-2-Spiro-1'-Cycloheptane], the “TBARS produced (%)” value is 9.0% in test [2] (at 10^-5 M of compound, 10 µM) and 91.2% in test [2] (at 10^-6 M of compound, 1 µM).

Take `CCCCCC1(CCCCC)Cc2c(cc(C(C)(C)C)c(O)c2C(C)(C)C)O1` [Compound x, 4,6-Di-tert-Butyl-2,2-Di-n-Pentyl-5-Hydroxy-2,3-Dihydrobenzofuran]: the “Chemiluminescence intensity (% of control)” value is on record as 84.5 % of control in test [1] (at 20 μM of compound) and 85.6 % of control in test [1] (at 200 μM of compound). Also, the “TBARS produced (%)” value in test [2] (at 10^-5 M of compound, 10 µM) worked out at 42.1%; in test [2] (at 10^-6 M of compound, 1 µM) it was 96.3%. In test [3], the IC50 turned out to be 5 µM.

Values taken from US5574178A, “4,6-Di-t-butyl-dihydrobenzofuran-5-ol and its derivatives” (Chugai Seiyaku Kabushiki Kaisha, priority 1992, dated 1996).
